Results reported in patent US20200390742A1, “CLINICALLY EFFICACIOUS ANTI-METHANOGENIC COMPOSITIONS AND USES” (Cedars-Sinai Medical Center, priority 2016, published 2020).
In brackets after ≈: the same amount, converted by molar mass. Where two headings read alike, the source gives them in different places. Marks after values point to notes of the source that are not given here. Peptide text beside a SMILES is read from it.

Columns and labels:
[1] = physchem; conditions: for solubility: Solubility (room temp)
From the text: Lovastatin was produced, analyzed and released using methodology known in the art.

[2] = test system: methane production by stool samples from IBS-C patients; assay: Methane production by human stool in vitro; type: cell-based
From the text: Data are change from baseline (ΔCH4 ppm) in headspace methane. […] Error bars are SD. P values are significance of change from baseline (paired t-test).
The second principle, without wishing to be bound by theory, is to reduce the pre-systemic conversion of lovastatin lactone to the β-hydroxyacid metabolite. […] Conversion of lovastatin lactone to β-hydroxyacid occurs in stomach acid and through the action of plasma, intestinal and liver esterases; some conversion may also be catalysed by intestinal bacteria.
The potential methane-reducing effect of lovastatin lactone concentrations in the stool of healthy volunteers was estimated by comparison of stool concentrations to lovastatin lactone concentrations used to inhibit methane production in stool samples from an IBS-C patient in vitro.

[3] = test system: M. smithii; assay: M. smithii colonized high-fat diet rats, qPCR of bowel segments; type: in vivo, Sprague-Dawley rats
Description: The rats were assessed for increased M. smithii by qPCR before and after the diet, and then divided into 3 groups. […] Each group was gavaged daily for 10 days. Three day stool collections were performed to assess average stool wet weight and daily variability prior to commencing the high fat diet, after 7 weeks of high-fat diet, and the final days of the lovastatin gavage (still on high-fat diet). On day 10 of the gavage, rats were euthanized and DNA was extracted from contents of ligated bowel segments (duodenum, jejunum, ileum, cecum and left colon). qPCR was performed using primers for total luminal bacteria and M. smithii.

[4] = pylorus-ligated rats, within 30 minutes; cited from earlier work
[5] = cited from earlier work
[6] = test system: human and rat fecal bacterial enzyme fractions; conditions: 12 h incubation; cited from earlier work
[7] = cited from earlier work; remark: listed apart in the source
[8] = Binary stress testing of lovastatin with formulation excipients (HPLC); conditions: alone, over a range of conditions
Description: The compatibility of lovastatin drug substance with formulation excipients was evaluated in binary stress testing studies where 1:1 mixtures of lovastatin and each excipient were stored for 7 days under different conditions of temperature and relative humidity (RH). Samples were analyzed by HPLC (based on USP methods) at day 0 and day 7.

[9] = test system: IBS-C patients; conditions: published trial, 12 weeks; drug arm; cited from earlier work
[10] = stool samples from IBS-C patients in vitro
[11] = Cecum, 1.5 mg/rat daily for 10 days
[12] = Duodenum, 1.5 mg/rat gavage daily for 10 days
[13] = Jejunum, 1.5 mg/rat daily for 10 days
[14] = Left Colon, 1.5 mg/rat daily for 10 days

With `CC[C@H](C)C(=O)O[C@H]1C[C@@H](C)C=C2C=C[C@H](C)[C@H](CC[C@@H]3C[C@@H](O)CC(=O)O3)[C@H]21` [Lovastatin] the “Solubility (room temp)” value [1] was “methanol 28 mg/mL”, the solubility ([1]; organic solvent or mixture) was 16000 µg/mL (≈ 39.6 mM) and the solubility ([1]; water) was 0.4 µg/mL (≈ 0.000989 mM). The “inhibition of methane AUC0-270” value ([2]; 0.2 mg/g stool, regression) was 85-90%, the “methane AUC0-270 as percentage of the control value” ([2]; 0.2 mg/g stool, regression) was 10-15% and the “reduction of methane production” value ([2]; lovastatin lactone 0.04 mg/g stool, human stool in vitro) was ~60%. The “inhibition of methane production” value ([2]; lovastatin lactone 0.21-0.25 mg/g stool, in vitro) was ~90%, the “inhibition of methane production” value [2, 10] was “only effective statin inhibitor” and the “M. smithii/Total Bacteria” value [3, 11] was 0.20. The “M. smithii/Total Bacteria” value [3, 12] was 1.30, the “M. smithii/Total Bacteria” value ([3]; Ileum, 1.5 mg/rat daily for 10 days, listed as Lactone) was 0.19* and the “M. smithii/Total Bacteria” value ([3]; Ileum, 1.5 mg/rat daily for 10 days, listed as lovastatin lactone) was “reduced”. The “M. smithii/Total Bacteria” value [3, 13] was 0.12, the “M. smithii/Total Bacteria” value [3, 14] was 0.0029 and the “intragastric dose exiting the gastric juice” value [4] was ~30%. The “pre-portal hydrolysis in vivo after oral administration” value [5] was ~10%, the “loss of lovastatin lactone” value [6] was 8-19% and the “absorption of orally-administered dose” value ([7]; human subjects, immediate release dosage form) was ~31%. For the same molecule, the “stability in binary stress testing” value [8] was “stable”.

With `CC(C)c1c(C(=O)Nc2ccccc2)c(-c2ccccc2)c(-c2ccc(F)cc2)n1CC[C@@H](O)C[C@@H](O)CC(=O)O` [atorvastatin] the “inhibition of methane production” value [2, 10] was “ineffective”.

For `CC(C)c1nc(N(C)S(C)(=O)=O)nc(-c2ccc(F)cc2)c1/C=C/[C@@H](O)C[C@@H](O)CC(=O)O` [rosuvastatin], the “inhibition of methane production” value [2, 10] was “ineffective”.

In the case of `CN1Cc2c(Cl)cc(Cl)cc2[C@H](c2cccc(S(=O)(=O)NCCOCCOCCNC(=O)NCCCCNC(=O)NCCOCCOCCNS(=O)(=O)c3cccc([C@@H]4CN(C)Cc5c(Cl)cc(Cl)cc54)c3)c2)C1` [Tenapanor], the “Abdominal Pain Response, % Subjects” value [9] is given as 65.5 (48.3) %, the “Bloating Response, % Subjects” value [9] is given as 59.5 (41.6) % and the “CSBM Response, % Subjects” value [9] is given as 60.7 (33.7) %. For the same molecule, the “Diarrhea Incidence, % Subjects” value [9] was 11.2 (0.0) % and the “Overall Response, % Subjects” value [9] was 50.0 (23.6) %.

In the case of `CC(C)C[C@H](NC(=O)[C@@H]1CSSC[C@@H]2NC(=O)[C@H](CC(C)C)NC(=O)[C@H](CCC(=O)O)NC(=O)[C@@H](NC(=O)[C@H](CCC(=O)O)NC(=O)[C@H](CC(=O)O)NC(=O)[C@@H](N)CC(N)=O)CSSC[C@H](NC(=O)[C@H](C)NC(=O)[C@H](C(C)C)NC(=O)[C@H](CC(N)=O)NC(=O)[C@H](C(C)C)NC2=O)C(=O)N[C@@H]([C@@H](C)O)C(=O)NCC(=O)N1)C(=O)O` [Plecanatide] (HELM PEPTIDE1{N.D.E.C.E.L.C.V.N.V.A.C.T.G.C.L}$PEPTIDE1,PEPTIDE1,4:R3-12:R3|PEPTIDE1,PEPTIDE1,7:R3-15:R3$$$V2.0), the “Diarrhea Incidence, % Subjects” value [9] is given as 4.3 (1.0) % and the “Overall Response, % Subjects” value [9] is given as 25.7 (15.9) %.

For `CC[C@H](C)C(=O)O[C@H]1C[C@@H](C)C=C2C=C[C@H](C)[C@H](CC[C@@H](O)C[C@@H](O)CC(=O)O)[C@H]21` [lovastatin β-hydroxyacid], the “inhibition of methane production” value [2, 10] was “ineffective”, the “M. smithii/Total Bacteria” value [3, 11] was 0.14 and the “M. smithii/Total Bacteria” value [3, 12] was 1.41. The “M. smithii/Total Bacteria” value [3, 13] was 0.29, the “M. smithii/Total Bacteria” value [3, 14] was 0.0024 and the “intragastric dose exiting the gastric juice” value [4] was ~30%. For the same molecule, the “absorption of orally-administered dose” value ([7]; human, in vivo, po) was 82-100%.

For `CCCCC(F)(F)[C@@]1(O)CC[C@H]2[C@@H](CC(=O)[C@@H]2CCCCCCC(=O)O)O1` [Lubiprostone], the “Abdominal Pain Response, % Subjects” value [9] is given as 36.7 (25.2) %, the “Bloating Response, % Subjects” value [9] is given as 32.0 (25.1) % and the “Overall Response, % Subjects” value [9] is given as 26.3 (15.3) %.

In the case of `C[C@@H]1NC(=O)[C@@H]2CCCN2C(=O)[C@H](CC(N)=O)NC(=O)[C@@H]2CSSC[C@H](N)C(=O)N[C@H]3CSSC[C@H](NC1=O)C(=O)N[C@@H]([C@@H](C)O)C(=O)NCC(=O)N[C@H](C(=O)N[C@@H](Cc1ccc(O)cc1)C(=O)O)CSSC[C@H](NC(=O)[C@H](Cc1ccc(O)cc1)NC(=O)[C@H](CCC(=O)O)NC3=O)C(=O)N2` [Linaclotide] (HELM PEPTIDE1{C.C.E.Y.C.C.N.P.A.C.T.G.C.Y}$PEPTIDE1,PEPTIDE1,1:R3-6:R3|PEPTIDE1,PEPTIDE1,2:R3-10:R3|PEPTIDE1,PEPTIDE1,5:R3-13:R3$$$V2.0), the “Abdominal Pain Response, % Subjects” value [9] is given as 49.5 (36.0) %, the “Bloating Response, % Subjects” value [9] is given as 43.2 (26.8) % and the “CSBM Response, % Subjects” value [9] is given as 48.2 (26.1) %. For the same molecule, the “Diarrhea Incidence, % Subjects” value [9] was 19.3 (2.8) % and the “Overall Response, % Subjects” value [9] was 33.6 (17.4) %.
